Key:
[1] = tested on: tau; experiment: Western blot of tau levels in HeLa cells stably overexpressing tau (HeLa-C3); type: cell-based; conditions: for tau levels, effect of chirality: HeLa-C3, similar concentrations of enriched and racemic myricanol
Procedure: (§1) HeLa cells stably expressing VS-tagged 4R0N tau were maintained under G418 selection in Opti-Mem plus 10% FBS (complete media; Invitrogen) as previously described (Jinwal et al. (2009) J Neurosci 29, 12079-12088). IMR32 cells were maintained in Opti-mem plus 10% FBS and 2% 200 mM L-glutamine (Cellgro, Mediatech, Inc, Herndon, Va.). IMR32, M17, and H4 cells were maintained in Opti-mem plus 10% FBS and 2% 200 mM L-glutamine (Cellgro, Mediatech, Inc., Herndon, Va.). All cells were treated as indicated and harvested as previously described (Jinwal et al. (2009) J Neurosci 29, 12079-12088).
(§2) Protein levels were determined by using the Peirce BCA kit. Western blotting was performed by running SDS-PAGE, followed by transfer onto Immobilon-P (Millipore), as previously described (Dickey et al. (2005) Curr Alzheimer Res 2, 231-23; Koren et al. (2010) J. Bio. Chem. 285, 2498-2505).
(§3) To assess the effects of the aqueous bayberry extract on overexpressed and endogenous tau levels, a HeLa cell line stably transfected with tau (HeLa-C3) and a human IMR32 cell line derived from hippocampal neurons were treated with the bayberry extract at indicated doses for four hours. The hippocampus is the region first affected by tau deposition in Alzheimer's disease.
Briefly, the EtOH extract was subjected to acid hydrolysis to enrich the aglycone component of the extract, and was then fractionated via medium pressure liquid chromatography (MPLC). The bayberry crude extract was separated into 8 UV-active fractions by MPLC) (FIG. 4A). The MPLC extraction method was designed to identify UV active flavonoids such as myricetin).
To investigate the effect of chirality on anti-tau activity, HaLa-C3 cells were treated with the isolated (+)-αR,11S-myricanol (86% ee) and commercially available “racemic” myricanol (actually 9% ee) at the indicated concentrations.

[2] = tested on: tau; experiment: Ex-vivo murine brain slice cultures, Western blot of tau levels; type: cell-based, mice; conditions: murine brain slices
Procedure: HeLa cells stably overexpressing tau (HeLa-C3; FIG. 2A) and IMR32 cells with endogenous tau levels (FIG. 2B) were treated for 4 hrs with aqueous bayberry extract at 0, 21, 35, 70 μg/ml (0, 0.3, 0.5, and 1.0% by volume). […] Tau levels are shown as a percentage of vehicle-treated cells ±SD. […] Treatments on whole brain murine slice cultures were performed in duplicate at doses of 0, 9, 18, 35, 70, 105, 140 μg/ml (0, 0.125, 0.25, 0.5, 1.0, and 2.0% by volume) of the bayberry extract. Each point in the graph (FIG. 2E) to the right represents the average tau reductions (n=8 slices) for all four mice at the given doses relative to the average vehicle ±SD. *p<0.05 by student's t test.
4 non-transgenic 5-month-old mice were decapitated and their brains were quickly removed. 400 μm coronal sections were made using a vibratome as previously described (Jinwal et al. J. Neurosci. 2009, 29, 12079-12088; Qiu et al. J. Neurosci. 2006, 26, 12943-12955; Mirnikjoo et al. J. Biol. Chem. 2001, 276, 10888-10896. NP100572Z). […]

[3] = tested on: tau; experiment: Western blot of endogenous tau levels in IMR32 cells; type: cell-based, human; conditions: IMR32 hippocampus-derived cells
Procedure: as §1, §2, §3

[4] = Lactate dehydrogenase release assay for myricanol; type: cell-based
[5] = tested on: Hsp70 ATPase; conditions: previously shown; cited from earlier work

Question: With `COc1c2cc(c(O)c1OC)CCCC[C@@H](O)CCc1ccc(O)c-2c1` (racemic) [(+/−)-myricanol, reference compound] as the compound, how does the “tau levels, effect of chirality” value [1] read?
Answer: The value was “no activity”.

Question: Which results are given for `COc1c2cc(c(O)c1OC)CCCC[C@H](O)CCc1ccc(O)c-2c1` [(+)-αR,11S-myricanol]?
Answer: reduction of tau levels [2]: potently reduced tau levels; EC50 ([1]; HeLa-C3, Western blot, read-out: EC50 for reduction of tau levels): 35 µM; reduction of tau levels ([1]; HeLa-C3, overexpressed tau): potently reduced tau levels; tau levels, effect of chirality [1]: reduced significantly; reduction of tau levels [3]: potently reduced tau levels

Question: For `COc1c2cc(c(O)c1OC)CCCC[C@@H](O)CCc1ccc(O)c-2c1` [myricanol], which “tau reduction after pre-treatment with autophagy inhibitor” value ([1]; HeLa-C3, NH4Cl 20 mM pre-treatment) is on record?
Answer: The value was “abrogated tau reductions”.

Question: And the “tau reduction after pre-treatment with proteasomal inhibitor” value ([1]; HeLa-C3, epoxomicin 0.3 μM pre-treatment)?
Answer: The value was “abrogated tau reductions”.

Question: What about the “reduction of intracellular tau levels compared with myricetin” value ([1]; comparison stated in the description) of the same compound?
Answer: Its value is “more effectively reduces intracellular tau levels than myricetin”.

Question: What about the “toxicity by lactate dehydrogenase release” value [4] of the same compound?
Answer: The value was “little toxicity”.

Question: With `O=c1c(O)c(-c2cc(O)c(O)c(O)c2)oc2cc(O)cc(O)c12` [myricetin] as the compound, how does the “inhibition of Hsp70 ATPase activity” value [5] read?
Answer: The value was “inhibitor of Hsp70 ATPase activity”.

From patent US9206103B2, “Materials and methods for reduction of protein tau and treatment of neurodegenerative diseases” (UNIVERSITY OF SOUTH FLORIDA, priority 2010, dated 2015)
